Measured values reported in article PMC2364971, “A Spectroscopic Study on PtCl4^(2−) Binding to Rabbit Skeletal Muscle G-Actin” (Metal-Based Drugs, 1995).

Biological target: T1, G-actin (rabbit skeletal muscle) (Oryctolagus cuniculus, UniProt P68135)
T1 construct: gene ACTA1
Assay: fluorescence of NPM reacted with free Cys374 after PtCl4^[…]- incubation; Scatchard approach, least-square fit
Type: binding

[Cl][Pt-2]([Cl])([Cl])[Cl] [PtCl4^2−]
Kd: 0.1 µM
